Results published in patent US20090042783A1, “APO E ANALOGS AND METHODS FOR THEIR USE” (priority 2004, published 2009).
Read-outs that look alike come from different tables or passages of the source. Marks after values point to notes of the source that are not given here. Non-standard residues stand in square brackets, D forms with d. Aib = CC(C)(N)C(=O)O

What was measured:
[1] = tested on: BV2 murine microglial cells
Experimental: For Applicants preliminary work, the two most common PTDs, TAT and penetratin, were used.
Cell Culture: BV-2, a well-characterized murine microglial cell line (Bochinni, 1992), is cultured in high glucose content DMEM supplemented with 1% penicillin/streptomycin, 10% fetal calf serum, 1% nonessential amino acids, and 1% sodium pyruvate. Cells are grown to confluency; trypsinized; spun down; resuspended in serum-free OptiMEM containing 1% N2 supplement, 1% penicillin/streptomycin, 1% nonessential amino acids, and 1% sodium pyruvate; and plated at a concentration of 20,000 cells/well to remove any nonadherent cells and serum.
Supernatant is collected 24 and/or 48 h after LPS stimulation and assayed for nitrite.
Quantification of Nitric Oxide (NO): Accumulation of nitrite (stable end product of NO production) in the medium is measured by colometric Griess reagent system (Promega); the absorbance is determined at 540 nm.
Cell Viability Assay: Cell viability is measured using a nonradioactive cell viability assay (cell titer 96 AQ, Promega). The assay measures the bioreduction of MTS (3-(4,5-dimethylthiazole-2-)-5-(3-carboxymethoxyphenyl)-2-(4-sulfophenyl)-2H-tetrazolium by viable cells into formazan. The absorbance of the calorimetric assay is measured at λ 490 nm. Viability is assessed and used to normalize the nitrite data.

[2] = tested on: mice with traumatic brain injury; assay: Closed head injury model of traumatic brain injury (rotorod, Morris Water Maze); conditions: for In vivo Therapeutic window time expanded?: mouse
Experimental: C57Bl/6J male mice (The Jackson Laboratory, ME), 12-16 weeks of age and weighing 24-32 g, are used for all experiments. Anesthesia is first induced with isoflurane in 30% O2/balance N2. The trachea is intubated and the lungs mechanically ventilated with 1.6% isoflurane in 30% O2/balance N2. Temperature is monitored with a rectal probe and maintained at 36.5° C. with a heat lamp. The right internal jugular vein is cannulated with silicone catheter. […] Intubated animals are then placed prone on a molded acrylic cast (FIG. 6A). […] The scalp is incised and the skull exposed. A concave 3 mm metallic disc is secured to the skull surface (with the concave surface in juxtaposition to the skull) by an adhesive. […] The disc is placed directly midline just caudal to bregma (FIG. 6B). […] The mice are positioned in a stereotactic frame. Although the stereotactactic frame helps to stabilize the animal and exactly calibrate the vertical displacement on impact (3 mm), ear bars are not used due to a much higher rate of skull fracture (or brainstem injury if the head rotates around the axis of the ear bars during impact). The piston is discharged at 6.8±0.2 m/s so as to impact the skull in the acrylic mold to move a maximum of approximately 3 mm (FIG. 6C). Inspired isoflurane is decreased to 0.7% immediately after impact. The scalp was infiltrated with lidocaine and closed with suture. Ophthalmic ointment was applied to the eyes for protection. The incidence of skull fracture is low (approximately 10%), as the metal disk helps to diffuse the impact, and the absence of ear bar fixation allows for displacement of the entire head. Mice were excluded if a depressed skull fracture was observed (incidence of approximately 10%). The animals are allowed to recover spontaneous ventilation then extubated. […] In these mice, arterial blood pressure, blood gas and glucose measurement at baseline, immediately after injury, and 15 minutes after injury are monitored during the recovery period.
Briefly, baseline performance on rotorod is established before the mice are intubated, the skin over the scalp reflected and a controlled cortical impact from a pneumatic impactor given on the midline. The skin is closed with surgical clips and the animals are constantly monitored until awake from anesthesia and then hourly for the next 4 hours. […] Performance on rotorod is tested at 24 hours post impaction and then every day for 5 days and data is presented as described. Groups of 12 mice are used for each compound at 0.5×MTD. […] Novel peptides and non-peptide analogs are also given by tail vein injection.
Daily Rotarod (RR) testing was used to assess short term motor and cerebellar deficit following head injury (Hamm et al., 1994). Mice were held by their tails and placed on the RR facing the wall by using gentle swinging motion while running in a constant speed mode.

peritoneal macrophages = assay: Peritoneal macrophage production of NO, TNFα and IL-6 induced by MOG or LPS/IFN-γ; type: cell-based, mouse
Experimental: For this purpose, three mice with clinical scores of 0 and three with clinical scores of 4 at 30 dpi (day post-immunization) were used for preparation of peritoneal macrophage cultures. Macrophages were collected after peritoneal lavage with 3 ml heparin (10 U/ml)-containing PBS and then seeded to 96-well microplates at a density of 1×10^5 cells/well in Dulbecco's MEM containing 10% fetal bovine serum, 2 mM L-glutamine serum, 1% HEPES and 100 U/ml penicillin and 100 μg/ml streptomycin, 37° C. in a humidified incubator with 5% CO2. 24 h later, the serum-containing medium was removed and cells were washed once with serum-free medium. To examine the differentiated response of macrophage to immune stimulators, macrophages obtained from mice with clinical scores of 0 or 4 were exposed to serial concentrations of IFN-γ/LPS or MOG35-55 peptide. […] Media were collected at 45 h or 72 h, and analyzed by ELISA for […] and IL-6 or for nitric oxide (NO) as detailed below.
As the stable end product of nitric oxide release, nitrite levels in conditioned media were determined by injecting 50 μl media sample into a Sievers 280 NOA analyzer (Boulder, Colo., USA). Total protein (μg/well) was measured using the BCA method (Pierce, Rockford, Ill., USA) according to manufacturer's instructions with BSA as standard. BCA values were measured using a Molecular Devices Thermomax Microplate Reader (Menlo Park, Calif., USA) at OD562. Nitric oxide levels ere expressed as μM NO2—/mg protein.
For cytokine assays, supernatants were collected 45 h after […]/LPS or MOG treatments and quantitative ELISAs using selected pairs of monoclonal antibodies (as recommended by the manufacturer Biosource) were performed to quantify the cytokines, TNF-α and IL-6. For TNF-α ELISA, 96-well ELISA plates were pre-coated with rabbit anti-mouse polyclonal to TNF-α as capture antibodies for 18 h at 2-8° C. and then blocked for 2 h at room temperature. The wells were incubated with samples or mouse TNF-α standards. Following incubation for 2 h at room temperature, the wells were washed, after which hamster anti-mouse TNF-α biotinylated secondary antibody and horseradish peroxidase conjugate were added. Tetramethylbenzidine (TMB) solution was then added, and peroxidase-catalyzed color change was stopped by acidification with 2 NH2SO4. The plates were scanned at wavelength 450 nm and the absorbance were measured. The results are expressed as the mean concentration (pg/ml) ±SEM.
For IL-6 ELISA, rat anti-mouse monoclonal to IL-6 was used as capture antibody, and biotinylated rat anti-mouse monoclonal to IL-6 as detection antibody. The rest of procedure is identical to that of TNF-α ELISA.

BV2 microglial cells = tested on: BV2 microglial cells
Experimental: For suppression of inflammation profiling, each peptide analog was tested at a final concentration of 0.1, […], 1, 3, 5, 10 and 25 μM in an LPS induced BV2 microglial cell release of NO and/or TNFα. […] The modification was a biotin label on the apoE peptide (biotin-[…]-amide) which allows detection with ^125I-streptavidin (ISA, Amersham).
In overview, BV-2 cells are plated in 96 well plates in complete media and then the media is replaced the next day with serum free media or reduced serum (1%) media. […] Each concentration of peptide (standard initial concentrations are 0.1, 0.5, 1, 3, 10 and 25 μM) is added to at least 6 wells of cells (e.g. 6 wells get 0.1 μM peptide, 6 wells get 0.5 μM peptide, etc.) and data are averaged from all 6 wells. […] (2001). Cell viability is also measured with an MTT assay (Laskowitz et al. 2001).

[3] = tested on: mice infected with C. rodentium; assay: C. rodentium colitis; type: in vivo; conditions: for Colon wt (% Total Body wt) / Histology Score / Body wt (% Total Body wt): WT mice, 10 days; for Body wt (% Total Body wt): 0.1% BEC or 2.5% DFMO
From the text: C. rodentium colitis: Of the two existing mouse models (Gobert A P et al., 2004; Cheng Y. et al., 2003), the C. rodentium model was selected because it produces a Th1-predominant mucosal inflammation that has histologic changes similar to human IBD (Higgins L M et al., 1999). In this model, mice are infected by oral gavage with C. rodentium (Gobert A P et al., 2004), a gram negative pathogenic bacterium that is the rodent equivalent of enteropathogenic E. coli that causes diarrhea in humans.
Since arginase I and iNOS were both abundantly expressed in the colitis tissues and L-Arg was completely metabolized, we investigated the effect of administration of 1% L-Arg in the drinking water. In wild type (WT) mice, C. rodentium colitis induced a high level of mortality that began on day 9 post-infection (FIG. 31A). In WT animals treated with L-Arg, mortality was inhibited by 42% and 62% compared to mice receiving water alone, after 12 and 14 days of infection, respectively (FIG. 31A). By Cox regression analysis, WT mice treated with L-Arg had only a 31% hazard of death compared with mice receiving water alone (p<0.0009). In iNOS^−/− mice, no deaths were observed, with or without L-Arg (FIG. 31A). […] Note that the weight loss of WT mice is underestimated, since only the weights of animals still alive could be included. […] There was an additive effect of iNOS deletion and L-Arg administration, with a 68% decrease in colon weight. Neither iNOS deletion nor L-Arg treatment affected colon weight in uninfected control mice. Importantly, these changes were closely paralleled by changes in colon histology (FIG. 32).
In uninfected control mice, BEC or DFMO had no effect (Table I). […] In fact, experiments had to be terminated early at 10 days post-infection, because of deaths and severe disease at this point.

Ac-RGGRLAYLRRRWAVLGRLRVRLASHLRKLRKRLL-NH2 (N-terminus and C-terminus assumed) [SynB5]
IC50 [1]: 3.2 µM
IC50 ([1]; read-out: IC50 TNFα, in vitro): 4.2 µM
In vivo Therapeutic window time expanded? [2]: No; Tested at 6 X

Ac-RRLSYSRRRFLRVRLASHLRKLRKRLL-NH2 (N-terminus and C-terminus assumed) [SynB3]
IC50 [1]: 5.9 µM
IC50 ([1]; read-out: IC50 TNFα, in vitro): 5.1 µM
Rotorod latency, single tail vein injection 2 hours post TBI ([2]; 2 hours post traumatic brain injury): significantly improves outcome from head trauma
In vivo Therapeutic window time expanded? [2]: Yes; tested at 4 X

RQIKIWFQNRRMKWKK (Protein transduction domain conjugate Antp) [antennapedia prefix peptide, portion of antennapedia that serves as a prefix to COG133, reference compound]
Inhibition of cytokine production induced by MOG or LPS/IFN-γ (peritoneal macrophages): showed no activity

apoE 130-148: truncated apoE peptide, residues 130-148 (TEELRVRLASHLRKLRKRL; UniProt P02649 148-166, looked up, fragment)
Activity at 25 μM in suppression of NO / TNFα release (BV2 microglial cells): failed to show activity

NCCCC(N)(C(=O)O)C(F)F (centres unmarked) [DFMO, -difluoromethylornithine]
Colon wt (% Total Body wt) ([3]; C. rodentium): 1.35 ± 0.12^b,d % Total Body wt
Histology Score ([3]; C. rodentium): 9.54 ± 0.68^b,d
Body wt (% Total Body wt) ([3]; C. rodentium): 78.6 ± 0.4^b,c % Total Body wt
Colon wt (% Total Body wt) ([3]; PBS (uninfected)): 0.61 ± 0.07 % Total Body wt
Histology Score ([3]; PBS (uninfected)): 0.75 ± 0.25
Body wt (% Total Body wt) ([3]; PBS (uninfected)): 101.3 ± 2.6 % Total Body wt
Survival of C. rodentium-infected mice ([3]; in the drinking water): significant loss of survival
Effect in uninfected control mice ([3]; mouse, in vivo): had no effect

apoE 130-147: truncated apoE peptide, residues 130-147 (TEELRVRLASHLRKLRKR; UniProt P02649 148-165, looked up, fragment)
Activity at 25 μM in suppression of NO / TNFα release (BV2 microglial cells): failed to show activity

apoE 134-149: truncated apoE peptide, residues 134-149 (RVRLASHLRKLRKRLL; UniProt P02649 152-167, looked up, fragment)
Fold less potent than apoE 130-150 (BV2 microglial cells): 2.5 fold

apoE 137-149: truncated apoE peptide, residues 137-149 (LASHLRKLRKRLL; UniProt P02649 155-167, looked up, fragment)
Activity at 25 μM in suppression of NO / TNFα release (BV2 microglial cells): failed to show activity

ApoE 135-149: truncated apoE peptide, residues 135-149 (VRLASHLRKLRKRLL; UniProt P02649 153-167, looked up, fragment)
Fold less potent than apoE 130-150 (BV2 microglial cells): 5 fold

LRVRLASHLRKLRKRLA [L149A]
EC50 (BV2 microglial cells; read-out: Structure activity in the COG133 peptide from single amino acid replacements, binding and/or suppression of NO or TNFα release, compared with 3.5 μM EC50 of COG133): > 3.5 µM

Ac-ASHLRKL-Aib-KRLL-NH2 (Ac-ASHLRKL[Aib]KRLL-NH2; SMILES CC(=O)N[C@@H](C)C(=O)N[C@@H](CO)C(=O)N[C@@H](Cc1c[nH]cn1)C(=O)N[C@@H](CC(C)C)C(=O)N[C@@H](CCCNC(=N)N)C(=O)N[C@@H](CCCCN)C(=O)N[C@@H](CC(C)C)C(=O)NC(C)(C)C(=O)N[C@@H](CCCCN)C(=O)N[C@@H](CCCNC(=N)N)C(=O)N[C@@H](CC(C)C)C(=O)N[C@@H](CC(C)C)C(N)=O) [COG432]
Rotorod performance (100% is performance prior to TBI) ([2]; 4 mg/kg, started 2 hours post TBI, day 5 post TBI): about 80%

ApoE 139-149: truncated apoE peptide, residues 139-149 (SHLRKLRKRLL; UniProt P02649 157-167, looked up, fragment)
Activity at 25 μM in suppression of NO / TNFα release (BV2 microglial cells): failed to show activity

CSCC[C@H](NC(=O)[C@H](CCCNC(=N)N)NC(=O)[C@H](CCCNC(=N)N)NC(C)=O)C(=O)N[C@@H](CCCCN)C(=O)N[C@@H](Cc1c[nH]c2ccccc12)C(=O)N[C@@H](CCCCN)C(=O)N[C@@H](CCCCN)C(=O)N[C@@H](CC(C)C)C(=O)N[C@@H](CCCNC(=N)N)C(=O)N[C@H](C(=O)N[C@@H](CCCNC(=N)N)C(=O)N[C@@H](CC(C)C)C(=O)N[C@@H](C)C(=O)N[C@@H](CO)C(=O)N[C@@H](Cc1c[nH]cn1)C(=O)N[C@@H](CC(C)C)C(=O)N[C@@H](CCCNC(=N)N)C(=O)N[C@@H](CCCCN)C(=O)N[C@@H](CC(C)C)C(=O)N[C@@H](CCCNC(=N)N)C(=O)N[C@@H](CCCCN)C(=O)N[C@@H](CCCNC(=N)N)C(=O)N[C@@H](CC(C)C)C(=O)N[C@@H](CC(C)C)C(N)=O)C(C)C [antp (52-58)]
IC50 [1]: 11 µM

Ac-RRRRRRRRLRVRLASHLRKLRKRLL-NH2 (N-terminus and C-terminus assumed) [polyArg (8R)]
IC50 [1]: 4 µM
IC50 ([1]; read-out: IC50 TNFα, in vitro): 4.2 µM

apoE 136-149: truncated apoE peptide, residues 136-149 (RLASHLRKLRKRLL; UniProt P02649 154-167, looked up, fragment)
Fold less potent than apoE 130-150 (BV2 microglial cells): 8 fold

Ac-ASHLRKLRKRLL-NH2 [apoE 138-149]
Activity at 25 μM in suppression of NO / TNFα release (BV2 microglial cells): failed to show activity
